From PMC5845353, “The selective cathepsin K inhibitor MIV-711 attenuates joint pathology in experimental animal models of osteoarthritis” (Journal of Translational Medicine, 2018)
Where “and” joins values, the source holds several entries; their conditions need not be identical. Identical values can stand only once.

Columns and labels:
plasma proteins = assay: Fraction bound to plasma proteins, dog; format: in vitro ADME
[1] = system: dogs subjected to partial medial meniscectomy; assay: Dog partial medial meniscectomy study, sclerosis of subchondral bone and bone area; format: in vivo
Text: Sclerosis of subchondral bone (an indication of altered load-bearing) was described and documented for femur using a comparison of medial to lateral, but was not included in the overall cartilage degeneration scores. This parameter was scored based on percent width of the medial femur with obviously thickened subchondral bone according to the following criteria: 0=normal 1=up to 10% of femur width has thickened trabeculae 2=11-30 % of femur width has thickened trabeculae 3=31-60 % of femur width has thickened trabeculae 4=61-90 % of femur width has thickened trabeculae 5=>90% of femur width has thickened trabeculae An additional measure of bone area was performed as follows: The photo file was opened and a fixed segment of 1000 by 400 pixels was selected with the bottom left and right corners touching the tidemark: The selected segment was opened in a new file and segmented into fourths: Black lines were drawn on the three segmenting lines in areas of no bone: Lengths of each individual drawn segment were summed per line for a total length of area of no bone, then divided by the total length of the image and calculated into a percent. Percent of no bone was calculated for each of the three segmented lines and then averaged for a mean percent of no bone for the image.

[2] = system: rabbits subjected to anterior cruciate ligament transection (ACLT); assay: Rabbit ACLT study, modified Mankin scoring; format: in vivo
Protocol: The femora and tibias were decalcified, embedded in paraffin, sectioned at 5-7 µm at two different levels separated by approximately 2 mm, and stained with safranin O and toluidine blue.
Both tibial plateaus and femoral condyles were subjected to semi-quantitative scoring using a modified Mankin scoring system. Slides were evaluated in animal ID order, i.e. in random order with respect to treatment, so that the reader was effectively blinded to treatment assignment.
Analysis was performed on the tibial plateaus and femoral condyles at two levels (Level 1 and 2) for each:
Group 1) sham + vehicle; Group 2) ACLT + vehicle; Group 3) ACLT + MIV-711, 30 µmol/kg (low dose) and Group 4) ACLT + MIV-711, 100 µmol/kg (high dose).

[3] = dog partial medial meniscectomy, group Mean
[4] = dog partial medial meniscectomy, versus Vehicle group
[5] = Group 3: ACLT + MIV-711, 30 µmol/kg (low dose)
[6] = Group 4: ACLT + MIV-711, 100 µmol/kg (high dose)

SMILES: C#C[C@@H]1CN(C(=O)[C@H](CC(C)C)NC(=O)c2ccc(-c3nc(N4CCN(C)CC4)sc3F)cc2)[C@@H]2C(=O)CO[C@H]12 [MIV-711]
- fraction bound to plasma proteins (plasma proteins): 90%
- Bone Score ([1]; MIV-711 group mean, sclerosis of subchondral bone): 3.07
- % inhibition, Bone Score ([1]; MIV-711 group vs vehicle): 4%
- Percent Length of no Bone, LFC Mean [1, 3]: 57%
- Percent Length of no Bone, LFC Site 1 [1, 3]: 59%
- Percent Length of no Bone, LFC Site 2 [1, 3]: 58%
- Percent Length of no Bone, LFC Site 3 [1, 3]: 54%
- Percent Length of no Bone, MFC Mean [1, 3]: 39%
- Percent Length of no Bone, MFC Site 1 [1, 3]: 42%
- Percent Length of no Bone, MFC Site 2 [1, 3]: 39%
- Percent Length of no Bone, MFC Site 3 [1, 3]: 36%
- Percent Length of no Bone, Overall Mean [1, 3]: 48%
- Percent Length of no Bone, LFC Site 2 ([1]; dog partial medial meniscectomy, individual animal, LFC site 2): 50% and 62% and 55% and 63% and 66% and 57% and 51% and 54% and 59% and 45% and 60% and 72%
- Percent Length of no Bone, LFC Site 3 ([1]; dog partial medial meniscectomy, individual animal, LFC site 3): 42% and 48% and 49% and 64% and 60% and 58% and 45% and 59% and 47% and 46% and 56% and 71% and 52%
- Percent Length of no Bone, MFC Site 1 ([1]; dog partial medial meniscectomy, individual animal, MFC site 1): 47% and 50% and 24% and 35% and 52% and 38% and 36% and 57% and 44% and 48% and 51% and 21%
- Percent Length of no Bone, MFC Site 2 ([1]; dog partial medial meniscectomy, individual animal, MFC site 2): 32% and 42% and 21% and 39% and 46% and 38% and 52% and 37% and 34% and 51% and 27% and 57% and 26% and 36%
- Percent Length of no Bone, MFC Site 3 ([1]; dog partial medial meniscectomy, individual animal, MFC site 3): 34% and 33% and 21% and 36% and 51% and 24% and 32% and 22% and 49% and 44% and 41% and 40%
- Percent Length of no Bone, LFC Site 1 ([1]; dog partial medial meniscectomy, individual animal, lateral femoral condyle site 1): 58% and 64% and 49% and 53% and 63% and 54% and 70% and 57% and 61% and 46% and 66% and 67%
- Percent Length of no Bone, LFC Mean ([1]; dog partial medial meniscectomy, individual animal, mean of LFC sites 1-3): 50% and 58% and 51% and 60% and 63% and 56% and 55% and 54% and 52% and 70%
- Percent Length of no Bone, MFC Mean ([1]; dog partial medial meniscectomy, individual animal, mean of MFC sites 1-3): 38% and 42% and 22% and 37% and 50% and 33% and 51% and 35% and 30% and 52% and 46%
- Percent Length of no Bone, Overall Mean ([1]; dog partial medial meniscectomy, individual animal, overall mean LFC and MFC): 44% and 50% and 37% and 48% and 56% and 45% and 53% and 54% and 46% and 49%
- % inhibition of Percent Length of no Bone, LFC Mean [1, 4]: 1%
- % inhibition of Percent Length of no Bone, LFC Site 1 [1, 4]: -4%
- % inhibition of Percent Length of no Bone, LFC Site 2 [1, 4]: 2%
- % inhibition of Percent Length of no Bone, LFC Site 3 [1, 4]: 6%
- % inhibition of Percent Length of no Bone, MFC Mean [1, 4]: -10%
- % inhibition of Percent Length of no Bone, MFC Site 1 [1, 4]: -12%
- % inhibition of Percent Length of no Bone, MFC Site 2 [1, 4]: 1%
- % inhibition of Percent Length of no Bone, MFC Site 3 [1, 4]: -21%
- % inhibition of Percent Length of no Bone, Overall Mean [1, 4]: -3%
- effects on subchondral bone sclerosis and bone area at the microscopic level ([1]; dog, 30 µmol/kg): no significant effects
- Bone Score ([1]; individual dogs of MIV-711 group, scoring of sclerosis of subchondral bone): 5 and 3 and 4 and 2 and 1
- effect on Mankin scores ([2]; ACLT rabbits, 30 and 100 µmol/kg): did not affect
- Total Mankin score Level 1+2_FC, mean [2, 5]: 58.86
- Total Mankin score Level 1+2_FC, median [2, 5]: 58.00
- Total Mankin score Level 1+2_LFC, mean [2, 5]: 21.14
- Total Mankin score Level 1+2_LFC, median [2, 5]: 17.00
- Total Mankin score Level 1+2_LTP, mean [2, 5]: 9.71
- Total Mankin score Level 1+2_LTP, median [2, 5]: 10.00
- Total Mankin score Level 1+2_MFC, mean [2, 5]: 37.71
- Total Mankin score Level 1+2_MFC, median [2, 5]: 43.00
- Total Mankin score Level 1+2_MTP, mean [2, 5]: 16.71
- Total Mankin score Level 1+2_MTP, median [2, 5]: 16.00
- Total Mankin score Level 1+2_TP, mean [2, 5]: 26.43
- Total Mankin score Level 1+2_TP, median [2, 5]: 26.00
- Total Mankin score Level 1_FC, mean [2, 5]: 32.14
- Total Mankin score Level 1_FC, median [2, 5]: 32.00
- Total Mankin score Level 1_LFC, mean [2, 5]: 12.00
- Total Mankin score Level 1_LFC, median [2, 5]: 10.00
- Total Mankin score Level 1_LTP, mean [2, 5]: 5.57
- Total Mankin score Level 1_LTP, median [2, 5]: 4.00
- Total Mankin score Level 1_MFC, mean [2, 5]: 20.14
- Total Mankin score Level 1_MFC, median [2, 5]: 23.00
- Total Mankin score Level 1_MTP, mean [2, 5]: 9.86
- Total Mankin score Level 1_MTP, median [2, 5]: 9.00
- Total Mankin score Level 1_TP, mean [2, 5]: 15.43
- Total Mankin score Level 1_TP, median [2, 5]: 16.00
- Total Mankin score Level 2_FC, mean [2, 5]: 26.71
- Total Mankin score Level 2_FC, median [2, 5]: 26.00
- Total Mankin score Level 2_LFC, mean [2, 5]: 9.14
- Total Mankin score Level 2_LFC, median [2, 5]: 7.00
- Total Mankin score Level 2_LTP, mean [2, 5]: 4.14
- Total Mankin score Level 2_LTP, median [2, 5]: 4.00
- Total Mankin score Level 2_MFC, mean [2, 5]: 17.57
- Total Mankin score Level 2_MFC, median [2, 5]: 20.00
- Total Mankin score Level 2_MTP, mean [2, 5]: 6.86
- Total Mankin score Level 2_MTP, median [2, 5]: 6.00
- Total Mankin score Level 2_TP, mean [2, 5]: 11.00
- Total Mankin score Level 2_TP, median [2, 5]: 12.00
- Total Mankin score Level 1+2_FC, mean [2, 6]: 49.71
- Total Mankin score Level 1+2_FC, median [2, 6]: 51.00
- Total Mankin score Level 1+2_LFC, mean [2, 6]: 21.14
- Total Mankin score Level 1+2_LFC, median [2, 6]: 21.00
- Total Mankin score Level 1+2_LTP, mean [2, 6]: 12.71
- Total Mankin score Level 1+2_LTP, median [2, 6]: 12.00
- Total Mankin score Level 1+2_MFC, mean [2, 6]: 28.57
- Total Mankin score Level 1+2_MFC, median [2, 6]: 27.00
- Total Mankin score Level 1+2_MTP, mean [2, 6]: 17.43
- Total Mankin score Level 1+2_MTP, median [2, 6]: 14.00
- Total Mankin score Level 1+2_TP, mean [2, 6]: 30.14
- Total Mankin score Level 1+2_TP, median [2, 6]: 27.00
- Total Mankin score Level 1_FC, mean [2, 6]: 25.43
- Total Mankin score Level 1_FC, median [2, 6]: 29.00
- Total Mankin score Level 1_LFC, mean [2, 6]: 10.57
- Total Mankin score Level 1_LFC, median [2, 6]: 10.00
- Total Mankin score Level 1_LTP, mean [2, 6]: 6.29
- Total Mankin score Level 1_LTP, median [2, 6]: 7.00
- Total Mankin score Level 1_MFC, mean [2, 6]: 14.86
- Total Mankin score Level 1_MFC, median [2, 6]: 15.00
- Total Mankin score Level 1_MTP, mean [2, 6]: 9.29
- Total Mankin score Level 1_MTP, median [2, 6]: 8.00
- Total Mankin score Level 1_TP, mean [2, 6]: 15.57
- Total Mankin score Level 1_TP, median [2, 6]: 16.00
- Total Mankin score Level 2_FC, mean [2, 6]: 24.29
- Total Mankin score Level 2_FC, median [2, 6]: 23.00
- Total Mankin score Level 2_LFC, mean [2, 6]: 10.57
- Total Mankin score Level 2_LFC, median [2, 6]: 10.00
- Total Mankin score Level 2_LTP, mean [2, 6]: 6.43
- Total Mankin score Level 2_LTP, median [2, 6]: 6.00
- Total Mankin score Level 2_MFC, mean [2, 6]: 13.71
- Total Mankin score Level 2_MFC, median [2, 6]: 13.00
- Total Mankin score Level 2_MTP, mean [2, 6]: 8.14
- Total Mankin score Level 2_MTP, median [2, 6]: 7.00
- Total Mankin score Level 2_TP, mean [2, 6]: 14.57
- Total Mankin score Level 2_TP, median [2, 6]: 14.00
